Earlier results in patent US6500450B1, “Composition for treating migraine headaches” (priority 1998, dated 2002).
Structures can show the parent of a compound that is named as a salt.

How the values were obtained:
migraine = conditions: in vivo
[1] = tested on: migraine occurrence in patients
[2] = tested on: patients with recurrent migraines; conditions: 49 patients
[3] = tested on: moderate to severe migraine headaches
[4] = 400 mg/day with breakfast for at least three months

Structure (SMILES): CC(C)NCC(O)COc1cccc2ccccc12 (stereo not drawn) [Propranolol]
- efficacy in migraine prophylaxis (migraine): effective
- side effects (migraine): fatigue, depression, impotence, insomnia, dizziness, and cold extremities

Structure (SMILES): CN1C[C@H](C(=O)N[C@]2(C)O[C@@]3(O)[C@@H]4CCCN4C(=O)[C@H](Cc4ccccc4)N3C2=O)C=C2c3cccc4[nH]cc(c34)C[C@H]21 [ergotamine, ergotamine tartrate]
- patients with complete headache relief within three hours of taking the drug (patients with migraine; 1-mg rectal suppository, patients with migraine): 73%
- consequence of frequent use (patients with migraine; frequent use of the drug): rebound headache
- side effects (patients with migraine; human, in vivo): nausea, vomiting, abdominal pain, muscle cramps, and occasionally, distal paresthesias

Structure (SMILES): CC[C@@H](CO)NC(=O)[C@@H]1C=C2c3cccc4c3c(cn4C)C[C@H]2N(C)C1 [methysergide, methysergide maleate]
- patients in whom migraine occurrence is reduced by more than half ([1]; 6 mg dose, migraine prophylaxis): 60%
- adverse effect of long-term use ([1]; long-term use): associated with retroperitoneal fibrosis

Structure (SMILES): Cc1cc2nc3c(=O)[nH]c(=O)nc-3n(C[C@H](O)[C@H](O)[C@H](O)CO)c2cc1C [riboflavin]
- side effects ([2]; 400 mg/day for at least three months): One patient stopped treatment because of gastric intolerance, but no other side effects were reported
- fall in the mean number of migraine attacks [2, 4]: 67%
- improvement of migraine severity [2, 4]: 68%

Structure (SMILES): CNS(=O)(=O)Cc1ccc2[nH]cc(CCN(C)C)c2c1 [sumatriptan]
- reduction of the intensity of moderate to severe migraine headaches ([3]; dose of six milligrams, injectable): 70%
- side effects ([3]; stated for this type of drug): distal paresthesias, tingling, heaviness, and a sensation of pressure
